Results on 29 compounds are retold here after patent US11802128B2, “Azetidine and pyrrolidine PARP1 inhibitors and uses thereof” (Xinthera, Inc., priority 2021, dated 2023).

Test [1] has as its system MDA-MB-436 (mutated BRCA1) cells. In words: Cell growth inhibition assay (CellTiter-Glo cell viability, 7 days). The format is cell-based. As to conditions: Homo sapiens, 168 h, MDA-MB-436, 7 days. The method in brief: (§1)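 Cells were seeded at 50 (DLD-1 parental), 200 (DLD-1 BRCA2−/−) or 500 (MDA-MB-436) cells/well onto 1:3 compound dilutions, top final 10 or 30 μM. Culture ran 7 days at 37 °C, 5% CO2. ATP was read by CellTiter-Glo 2.0, and IC50 was fitted from growth inhibition.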
On the technique in general: ATP-based viability assays read luminescence as a measure of living cells.

For the next test, the system named is DLD-1 BRCA2(−/−) cells. The test is described as above. The format is cell-based. As to conditions: Homo sapiens, 168 h. In short, it runs like this: as §1
The target in the next test is PARP2 (Homo sapiens (Human), UniProt Q9UGN5). The test is described as follows: Biochemical fluorescent polarization (FP) assay, displacement of PARPi-FL. The format is binding. How it is done:
(§2) The assay was performed utilizing the following method:
(§3) 100% DMSO was used for the high (with protein) and low (without protein) control samples. 20 nL of compound or DMSO alone was added to individual assay plate wells.
(§4) PARP1 and PARP2 protein were expressed, purified, and diluted in assay buffer containing 50 mM Tris pH 8.0, 0.001% Triton X-100, 10 mM MgCl2, 150 mM NaCl to a final concentration of 20 nM. The PARPi-FL was then added at a final concentration of 3 nM.
(§5) The assay plate is centrifuged at 1000 rpm for 1 min and incubated for 4 h at room temperature.
(§6) The fluorescent polarization is read using an Envision plate reader using the following settings: […]

The target of a further test is PARP1 (Homo sapiens (Human), UniProt P09874). The description is as above. The format is binding. As to conditions: 20 nM protein, 3 nM PARPi-FL, 4 h at room temperature. How it is done:
as §2, §3, §4, §5, §6

Where [2] appears, read: 20 nM protein, 3 nM PARPi-FL, 4 h at room temperature, read-out: IC50 FP PARP2.

SMILES strings stand for the structures. Read-outs that look alike come from different tables or passages of the source. Bounds are passed on as bounds.

PARP1, sequence (P09874 whole entry): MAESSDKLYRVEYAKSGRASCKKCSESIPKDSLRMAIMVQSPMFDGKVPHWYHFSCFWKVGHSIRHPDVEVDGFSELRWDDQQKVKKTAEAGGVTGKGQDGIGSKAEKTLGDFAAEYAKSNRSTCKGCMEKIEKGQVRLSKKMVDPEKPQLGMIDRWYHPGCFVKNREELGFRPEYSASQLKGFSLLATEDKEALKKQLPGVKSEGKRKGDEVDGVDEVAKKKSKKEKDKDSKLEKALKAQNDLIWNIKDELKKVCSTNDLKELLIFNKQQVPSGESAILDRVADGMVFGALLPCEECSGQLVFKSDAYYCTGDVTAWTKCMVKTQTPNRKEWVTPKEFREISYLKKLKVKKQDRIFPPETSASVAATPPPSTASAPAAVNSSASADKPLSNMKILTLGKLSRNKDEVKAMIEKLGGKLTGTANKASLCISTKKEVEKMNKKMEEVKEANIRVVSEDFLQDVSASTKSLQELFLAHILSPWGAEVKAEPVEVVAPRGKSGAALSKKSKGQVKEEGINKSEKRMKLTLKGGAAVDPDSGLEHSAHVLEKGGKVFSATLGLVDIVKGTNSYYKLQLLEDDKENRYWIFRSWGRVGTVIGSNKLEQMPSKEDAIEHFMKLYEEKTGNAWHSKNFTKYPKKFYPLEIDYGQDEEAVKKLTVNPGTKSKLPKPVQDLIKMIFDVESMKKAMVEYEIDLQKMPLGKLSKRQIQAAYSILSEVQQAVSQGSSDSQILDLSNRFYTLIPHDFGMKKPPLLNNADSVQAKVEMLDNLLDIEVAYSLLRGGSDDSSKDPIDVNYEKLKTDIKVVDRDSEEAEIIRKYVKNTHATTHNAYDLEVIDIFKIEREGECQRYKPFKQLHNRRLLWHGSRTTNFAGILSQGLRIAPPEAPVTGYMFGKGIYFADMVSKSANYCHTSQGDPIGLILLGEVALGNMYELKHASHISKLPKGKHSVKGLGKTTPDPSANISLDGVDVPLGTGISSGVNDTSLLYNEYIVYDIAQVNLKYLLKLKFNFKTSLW
PARP2, sequence (Q9UGN5 whole entry): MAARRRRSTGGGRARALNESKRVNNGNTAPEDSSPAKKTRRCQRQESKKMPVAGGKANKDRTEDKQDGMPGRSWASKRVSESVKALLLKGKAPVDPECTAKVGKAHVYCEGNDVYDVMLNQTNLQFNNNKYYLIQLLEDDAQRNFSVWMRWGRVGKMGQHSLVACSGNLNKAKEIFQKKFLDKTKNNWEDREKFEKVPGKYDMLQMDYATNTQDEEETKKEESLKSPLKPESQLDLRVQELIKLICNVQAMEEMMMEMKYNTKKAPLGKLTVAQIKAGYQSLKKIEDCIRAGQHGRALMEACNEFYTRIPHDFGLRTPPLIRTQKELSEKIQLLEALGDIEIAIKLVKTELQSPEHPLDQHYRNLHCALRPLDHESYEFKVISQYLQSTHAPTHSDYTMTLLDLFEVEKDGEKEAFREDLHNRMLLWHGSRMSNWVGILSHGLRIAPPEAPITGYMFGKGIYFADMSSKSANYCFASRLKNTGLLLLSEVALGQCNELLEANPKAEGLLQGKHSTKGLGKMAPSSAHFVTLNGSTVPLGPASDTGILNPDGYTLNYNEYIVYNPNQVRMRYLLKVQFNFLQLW

For `CCc1cc2ncc(CN3C[C@H](Oc4ccc(C(=O)NC5CC5)nc4)[C@H]3C)cc2[nH]c1=O` [Example 43, N-cyclopropyl-5-{[(2R,3S)-1-[(7-ethyl-6-oxo-5H-1,5-naphthyridin-3-yl)methyl]-2-methylazetidin-3-yl]oxy}pyridine-2-carboxamide], the results for the EC50 (in test [1]; with DLD-1 BRCA2(−/−) cells) were 0.46 nM and 1.1 nM, respectively. Further, the results for the IC50 on PARP2 (setting [2]) and on PARP1 were 2900 nM and 6.6 nM, respectively.
Turning to `CCc1cc2ncc(CN3C[C@H](Oc4ccc(C(=O)NC5COC5)nc4)[C@H]3C)cc2[nH]c1=O` [Example 44, 5-(((2R,3S)-1-((7-ethyl-6-oxo-5,6-dihydro-1,5-naphthyridin-3-yl)methyl)-2-methylazetidin-3-yl)oxy)-N-(oxetan-3-yl)picolinamide], the EC50 – broadly, the midpoint of the concentration-response curve – in test [1] stood at 1.3 nM; in the test with DLD-1 BRCA2(−/−) cells it was 3.5 nM. For the same compound, the IC50 (as a rule, the point on the concentration scale where inhibition reaches its midpoint) on PARP2 (setting [2]) came out at 11000 nM; at PARP1, 6.7 nM.
Regarding `[2H]C([2H])([2H])NC(=O)c1ccc(O[C@H]2CN(C([2H])([2H])c3cnc4cc(CC)c(=O)[nH]c4c3)[C@@H]2C)cn1` [Example 45], the EC50 in test [1] worked out at 0.87 nM; with DLD-1 BRCA2(−/−) cells it was 1.5 nM. For the same compound, the IC50 on PARP2 worked out at 6900 nM; on PARP1, 5 nM.
With `CCc1cn2nc(CN3C[C@H](Oc4ccc(C(=O)NC)nc4)[C@H]3C)cc2[nH]c1=O` [Example 46], the values for the EC50 (in test [1]; in the test on DLD-1 BRCA2(−/−) cells) were 100 nM and 90 nM, respectively. Further, the values for the IC50 on PARP2 (setting [2]) and at PARP1 were over 100000 nM and 9.9 nM, respectively.
For `Cc1cc2ncc(CN3C[C@H](Oc4ccc(C#N)cc4)[C@H]3C)cc2[nH]c1=O` [Example 47], in that order: 100 nM, 100 nM, 88000 nM and 5.8 nM.
With `CCc1cc2ncc(CN3C[C@H](Oc4ccc(C#N)cc4)[C@H]3C)cc2[nH]c1=O` [Example 48], the values for the EC50 (in test [1]; in the test with DLD-1 BRCA2(−/−) cells) were 3.2 nM and 5.7 nM, respectively. In addition, the figures for the IC50 on PARP2 (setting [2]) and on PARP1 were 3500 nM and 6.2 nM, respectively.
For `CCc1cc2ncc(CN3CC[C@@H](n4ccc5nc(C(=O)NC)ccc54)C3)cc2[nH]c1=O` [Example 49], in that order: 9.5 nM, 9.2 nM, over 100000 nM and 6.3 nM.
As for `CNC(=O)c1ccc(O[C@H]2CN(Cc3cnc4cc(C)c(=O)[nH]c4c3)[C@@H]2C)cn1` [Example 50], the EC50 in test [1] is 8.7 nM; in the test on DLD-1 BRCA2(−/−) cells, 5.3 nM. Also, the IC50 on PARP2 (setting [2]) came out at 83000 nM; on PARP1, 11 nM.
For `CCc1cc2ncc(CN3C[C@H](Oc4ccc(F)cc4)[C@H]3C)cc2[nH]c1=O` [Example 51], in that order: 7.9 nM, 4.4 nM, 4200 nM and 4.1 nM.
`CNC(=O)c1ncc(O[C@H]2CN(Cc3cnc4cc(C)c(=O)[nH]c4c3)[C@@H]2C)cc1F` [Example 52]: the EC50 in test [1] turned out to be 9.8 nM; in the test on DLD-1 BRCA2(−/−) cells, 12 nM. Besides, the IC50 on PARP2 (setting [2]) was found to be 76000 nM; on PARP1 it was 6.3 nM.
For `Cc1cc2ncc(CN3C[C@H](Oc4ccc(C(=O)NC5CC5)nc4)[C@H]3C)cc2[nH]c1=O` [Example 53], in that order: 1.3 nM, 2.2 nM, 61000 nM and 8 nM.
The matching figures for `CCNC(=O)c1ccc(OC2CN(Cc3cnc4cc(C)c(=O)[nH]c4c3)C2)cn1` [Example 56]: 12 nM, 45 nM, 76000 nM and 6.2 nM.
For `Cc1cc2ncc(CN3CC(Oc4ccc(C(=O)NC5CC5)nc4)C3)cc2[nH]c1=O` [Example 57], in that order: 6.8 nM, 12 nM, 47000 nM and 9.4 nM.
As to `CCNC(=O)c1ccc(OC2CN(Cc3cnc4cc(CC)c(=O)[nH]c4c3)C2)cn1` [Example 58], the EC50 amounted to 1.7 nM in test [1] and 3.3 nM with DLD-1 BRCA2(−/−) cells. The IC50 at PARP2 (setting [2]) came out at 8300 nM; on PARP1 it was 6 nM.
The matching figures for `CCc1nc2cc(F)c(CN3C[C@H](Oc4ccc(C(=O)NC)nc4)[C@H]3C)cc2[nH]c1=O` [Example 59]: 4.7 nM, 9.8 nM, over 100000 nM and 5.5 nM.
The matching figures for `Cc1cc2ncc(CN3C[C@H](Oc4ccc(F)nc4)[C@H]3C)cc2[nH]c1=O` [Example 62]: 140 nM, 86 nM, 52000 nM and 18 nM.
For `CCc1cc2ncc(CN3C[C@H](n4ccc5nc(C(=O)NC)ccc54)[C@H]3C)cc2[nH]c1=O` [Example 63, 1-[(2R,3S)-1-[(7-ethyl-6-oxo-5H-1,5-naphthyridin-3-yl)methyl]-2-methylazetidin-3-yl]-N-methylpyrrolo[3,2-b]pyridine-5-carboxamide], in that order: 3.6 nM, 4.8 nM, 9600 nM and 6.6 nM.
Regarding `CCc1cc2ncc(CN3C[C@H](Oc4ccc(C(=O)NC)cc4)[C@H]3C)cc2[nH]c1=O` [Example 64], the values for the EC50 (in test [1]; in the test on DLD-1 BRCA2(−/−) cells) were 43 nM and 96 nM, respectively. Also, the results for the IC50 on PARP2 (setting [2]) and on PARP1 were 2600 nM and over 100 nM, respectively.
The matching figures for `CCc1cc2ncc(CN3C[C@H](Oc4cnc(C(=O)NC5CC5)c(F)c4)[C@H]3C)cc2[nH]c1=O` [Example 66, N-cyclopropyl-5-{[(2R,3S)-1-[(7-ethyl-6-oxo-5H-1,5-naphthyridin-3-yl)methyl]-2-methylazetidin-3-yl]oxy}-3-fluoropyridine-2-carboxamide]: 1 nM, 2.1 nM, 6400 nM and 3.3 nM.
The matching figures for `CNC(=O)c1ccc(O[C@H]2CN(Cc3cnc4cc(C(F)F)c(=O)[nH]c4c3)[C@@H]2C)cn1` [Example 70]: 1.1 nM, 1.3 nM, 2400 nM and 4.1 nM.
For `O=C(NC1CC1)c1ccc(OC2CN(Cc3cnc4cc(C5CC5)c(=O)[nH]c4c3)C2)cn1` [Example 73], in that order: 2.1 nM, 4.8 nM, 1700 nM and 3.6 nM.
`Cc1cc2ncc(CN3C[C@H](Oc4ccc(C(=O)NC5(C)CC5)nc4)[C@H]3C)cc2[nH]c1=O` [Example 74]: the EC50 in test [1] was 2.6 nM; in the test with DLD-1 BRCA2(−/−) cells, 3.9 nM. In addition, the IC50 at PARP2 (setting [2]) turned out to be 25000 nM; on PARP1, 8.9 nM.
For `C[C@@H]1[C@@H](Oc2ccc(C(=O)NC3CC3)nc2)CN1Cc1cnc2cc(C(F)F)c(=O)[nH]c2c1` [Example 75, N-cyclopropyl-5-{[(2R,3S)-1-{[7-(difluoromethyl)-6-oxo-5H-1,5-naphthyridin-3-yl]methyl}-2-methylazetidin-3-yl]oxy}pyridine-2-carboxamide], in that order: 0.72 nM, 1.2 nM, 5200 nM and 4 nM.
For `C[C@@H]1[C@@H](Oc2ccc(C(=O)NC3CC3)nc2)CN1Cc1cnc2cc(Cl)c(=O)[nH]c2c1` [Example 76, 5-{[(2R,3S)-1-[(7-chloro-6-oxo-5H-1,5-naphthyridin-3-yl)methyl]-2-methylazetidin-3-yl]oxy}-N-cyclopropylpyridine-2-carboxamide], in that order: 1.1 nM, 1.4 nM, 8700 nM and 2.8 nM.
The matching figures for `CNC(=O)c1ccc(O[C@H]2CN(Cc3cnc4cc(Cl)c(=O)[nH]c4c3)[C@@H]2C)cn1` [Example 77]: 1.8 nM, 3.8 nM, over 100000 nM and 3.8 nM.
Regarding `Cc1cc2ncc(CN3C[C@H](Oc4ccc(C(=O)NC5CC(F)(F)C5)nc4)[C@H]3C)cc2[nH]c1=O` [Example 80], the concentration for a half-maximal effect (EC50) in test [1] was determined as 1.8 nM; with DLD-1 BRCA2(−/−) cells, 4.3 nM. Further, the results for the IC50 at PARP2 (setting [2]) and on PARP1 were 5300 nM and 3.8 nM, respectively.
For `Cc1cc2ncc(CN3C[C@H](Oc4ccc(C(=O)N[C@H]5C[C@H](F)C5)nc4)[C@H]3C)cc2[nH]c1=O` [Example 82], in that order: 2.1 nM, 3.1 nM, 6800 nM and 4.5 nM.
In the case of `C[C@@H]1[C@@H](Oc2ccc(C(=O)NC3CC3)nc2)CN1Cc1cnc2c(c1)[nH]c(=O)c1ccoc12` [Example 84], the results for the EC50 (in test [1]; in the test with DLD-1 BRCA2(−/−) cells) were 1.4 nM and 3 nM, respectively. Also, the IC50 was found to be 48000 nM on PARP2 (setting [2]) and 8.8 nM on PARP1.
The matching figures for `CNC(=O)c1ccc(O[C@H]2CN(Cc3ccc4nc(C)c(=O)[nH]c4c3F)[C@@H]2C)cn1` [Example 91]: 27 nM, 23 nM, over 100000 nM and 11 nM.
